{"source": "patent US20240360101A1", "about": "“PHARMACEUTICAL SALTS OF A CHK-1 INHIBITOR” (SENTINEL ONCOLOGY LIMITED, priority 2021, published 2024)", "key": {"MIA PaCa-2 cells": {"system": "MIA PaCa-2 cells", "test": "Gemcitabine combination cell assay", "type": "cell-based", "procedure": "Exponentially growing MIA PaCa-2 (ATCC CRL-1420) cells are treated with trypsin to remove cells from the plate surface. Approximately 10,000 cells/well are plated in 96 well plates in RPMI containing 10% fetal bovine serum, 1% sodium pyruvate and 1% L-GlutaMax. Cells are allowed to adhere to the plate surface overnight. Serial half-log dilutions of Chk1 inhibitor test compounds and gemcitabine are made with a final highest concentration of 3000 nM and 100 nM, respectively. Chk1 inhibitors and gemcitabine are combined so that each concentration of Chk1 inhibitor is added to each concentration of gemcitabine. Each drug is also tested as a single agent. Drugs are added to adherent cells (in duplicate) and incubated for 72h. At 72h the cells are treated with Promega Cell Titer Glo reagent for approximately 15 minutes. Luminescence (relative light units, RLU) is recorded using a BMG Polarstar Omega plate reader. The single agent concentration that results in a 50% reduction in total signal (IC50) is calculated using PRISM software and a four-parameter non-linear regression curve fit. For combination studies the RLUs are plotted using PRISM on an XY plot with the gemcitabine concentration on the X axis and RLU on the Y axis. The RLU for each concentration of Chk1 inhibitor is plotted as a function of gemcitabine concentration. The IC50 for gemcitabine alone and at each concentration of Chk1 is determined using a four-parameter non-linear regression curve fit. The approximate concentration of Chk1 inhibitor that results in a two and ten-fold reduction in the IC50 of gemcitabine alone is calculated as an indication of synergistic potency."}, "[1]": {"test": "Gravimetric vapour sorption (GVS)", "type": "physicochemical", "conditions": "for GVS weight loss, initial desorption cycle: from 50% RH to 0% RH; for GVS weight loss, initial desorption cycle / GVS water gain, subsequent sorption cycle: 25° C.; for GVS water gain, subsequent sorption cycle: up to 90% RH", "procedure": "Sorption isotherms were obtained using a Hiden Isochema moisture sorption analyser (model IGAsorp), controlled by IGAsorp Systems Software V6.50.48. The sample was maintained at a constant temperature (25° C.) by the instrument controls. The humidity was controlled by mixing streams of dry and wet nitrogen, with a total flow of 250 ml·min−. The instrument was verified for relative humidity (RH) content by measuring three calibrated Rotronic salt solutions (10-50-88%). The weight change of the sample was monitored as a function of humidity by a microbalance (accuracy+/−0.005 mg). A defined amount of sample was placed in a tared mesh stainless steel basket under ambient conditions. A full experimental cycle typically consisted of three scans (sorption, desorption and sorption) at a constant temperature (25° C.) and 10% RH intervals over a 0-90% range (60 minutes for each humidity level)."}, "[2]": {"test": "Solubility of the salts in biorelevant media", "type": "physicochemical", "conditions": "25° C., 24 h, HPLC; for solubility FaSSGF (pH 1.37): Fasted State Simulated Gastric Fluid; for solubility FaSSIF (pH 6.71): Fasted State Simulated Intestinal Fluid; for solubility FeSSIF (pH 5.14): Fed State Simulated Intestinal Fluid", "procedure": "Biorelevant media (DI H2O, FeSSIF, FaSSIF and FaSSGF) (2 mL) was charged. Samples were left to equilibrate (25° C.) over 24 h. Solubility measurements were taken using HPLC (see Method 1 above)."}, "[3]": {"test": "Two-week stability (HPLC purity)", "type": "physicochemical", "procedure": "HPLC analysis was carried out on an Agilent 1110/1200 series HPLC system. The column used was an Triart C18; 150×4.6 mm, 3.0 μm particle size (Ex Waters, PN: 186004644). The flow rate was 1.0 mL/min. Mobile phase A was Water:Trifluoroacetic acid (100:0.1%) and mobile phase B was Acetonitrile:Trifluoroacetic acid (100:0.1%). Detection was by UV at 302 nm. The injection volume was 5 μL, column temperature 40° C. and the following gradient was used: […]\nExperimental: Maleate salt pattern B (30 mg) was placed into separate 15 mL type I glass vials. To these vials, a HDPE plastic cap was loosely attached to allow the ingress of moisture. The vials were then placed into ICH rated stability cabinets at 25° C./60% RH and 40° C./75% RH and in cold storage at 2-8° C. Following 2 weeks of storage these samples were removed from the stability cabinets and cold storage and the chemical purity assessed by HPLC (method 2). The relevant data was collected using a wavelength of 302 nm. The samples were prepared in MeCN:water (1:1)."}, "[4]": {"test": "Dynamic vapour sorption (DVS) analysis of maleate salt Pattern B", "type": "physicochemical", "procedure": "A defined amount of the maleate salt Pattern B was placed in a tared mesh stainless steel basket under ambient conditions. A full experimental cycle consisted of […] (desorption, sorption repeat and desorption) at a constant temperature (25° C.) and 10% RH intervals over a 0-90% range (60 minutes for each humidity level).\nPost cycle, the material was isolated at 0% RH and tested for crystallinity and then held at 90% RH for a minimum of 3 hours and re-tested for changes in crystallinity."}}, "note": "pIC50: −log10 of the molar value.", "data": [{"smiles": "COc1cc(C2(F)CCN(C)CC2)ccc1-c1cc(Nc2cnc(C#N)cn2)n[nH]1", "note": "[compound of formula (1), 5-[[5-[4-(4-fluoro-1-methyl-4-piperidyl)-2-methoxy-phenyl]-1H-pyrazol-3-yl]amino]pyrazine-2-carbonitrile]", "values": [{"measurement": "pIC50", "setting": "MIA PaCa-2 cells; Homo sapiens, compound alone, MIA PaCa-2 cells, 72h, Cell Titer Glo, read-out: Chk1 IC50", "result": 6.84}, {"measurement": "10 × LS", "setting": "MIA PaCa-2 cells; approximate concentration giving a 10-fold reduction in the IC50 of gemcitabine alone, MIA PaCa-2, 72h", "result": "~100", "unit": "nM"}, {"measurement": "2 × LS", "setting": "MIA PaCa-2 cells; approximate concentration giving a two-fold reduction in the IC50 of gemcitabine alone, MIA PaCa-2, 72h", "result": "~3", "unit": "nM"}, {"measurement": "GVS weight loss, initial desorption cycle", "setting": "[1]; listed as free base", "result": 2, "unit": "wt %"}, {"measurement": "GVS water gain, subsequent sorption cycle", "setting": "[1]; listed as free base", "result": 8, "unit": "%"}, {"measurement": "Aqueous solubility mg/mL 24 h", "result": 0.39, "unit": "mg/mL"}, {"measurement": "solubility FaSSGF (pH 1.37)", "setting": "[2]; listed as free base", "result": 2.93, "unit": "mg/mL"}, {"measurement": "solubility FaSSIF (pH 6.71)", "setting": "[2]; listed as free base", "result": 0.04, "unit": "mg/mL"}, {"measurement": "solubility FeSSIF (pH 5.14)", "setting": "[2]; listed as free base", "result": 0.6, "unit": "mg/mL"}]}, {"smiles": "COc1cc(C2(F)CCN(C)CC2)ccc1-c1cc(Nc2cnc(C#N)cn2)n[nH]1", "note": "[maleate pattern B, 5-[[5-[4-(4-fluoro-1-methyl-4-piperidyl)-2-methoxy-phenyl]-1H-pyrazol-3-yl]amino]pyrazine-2-carbonitrile]", "values": [{"measurement": "HPLC purity (HPLC method 2)", "setting": "[3]; T = 0", "result": 96.85}, {"measurement": "HPLC purity (HPLC method 2)", "setting": "[3]; T = 2 weeks, 2-8° C.", "result": 96.85}, {"measurement": "HPLC purity (HPLC method 2)", "setting": "[3]; T = 2 weeks, 25° C./60% RH", "result": 96.99}, {"measurement": "HPLC purity (HPLC method 2)", "setting": "[3]; T = 2 weeks, 40° C./75% RH", "result": 96.98}, {"measurement": "stability on storage", "setting": "[3]; two weeks at 25° C./60% RH, 40° C./75% RH and 2-8° C., result in words", "result": "stable"}, {"measurement": "crystalline form (XRPD) after GVS at extremes of humidity", "setting": "[1]; 0% RH and 90% RH, result in words", "result": "0% RH converts to pattern A, 90% RH no change"}, {"measurement": "GVS weight loss, initial desorption cycle", "setting": "[1]", "result": 2.5, "unit": "wt %"}, {"measurement": "GVS water gain, subsequent sorption cycle", "setting": "[1]", "result": 4, "unit": "%"}, {"measurement": "Aqueous solubility mg/mL 24 h", "result": 1.4, "unit": "mg/mL"}, {"measurement": "solubility FaSSGF (pH 1.37)", "setting": "[2]", "result": 3.97, "unit": "mg/mL"}, {"measurement": "solubility FaSSIF (pH 6.71)", "setting": "[2]", "result": 0.07, "unit": "mg/mL"}, {"measurement": "solubility FeSSIF (pH 5.14)", "setting": "[2]", "result": 0.57, "unit": "mg/mL"}, {"measurement": "DVS moisture associated before the first desorption", "setting": "[4]; 25° C., ambient start", "result": "ca. 2.8 wt %"}, {"measurement": "DVS main increase in weight, first sorption", "setting": "[4]; between 20 and 30% RH", "result": "ca. 2 wt %"}, {"measurement": "crystalline form (XRPD) after DVS", "setting": "[4]; isolated at 0% RH, then held at 90% RH, result in words", "result": "mixed phase at 0% RH and pattern B at 90% RH"}]}]}
